Results taken from patent US12031152B2, “Nutrient media for the production of slaughter-free meat” (Upside Foods, Inc., priority 2020, dated 2024).

Tests used:
cells [1] = settings: FAC 0.5 mg/ml-50 mg/ml, up to 275 hours, vs cells without FAC
From the text: (§1) Several trace elements are essential to cell metabolism and growth. […] As a novel alternative to formulating trace elements directly, the present disclosure discloses the identification and testing of food-safe complexes that innately contain trace elements.

[2] = ADI of trace elements and other components
From the text: as §1

Adherent Gallus cells = experiment: Cellular response to cis recombinant Gallus FGF-2 vs commercial human recombinant FGF-2; format: cell-based; settings: growth factor at 10 μg/L and 100 μg/L, five days
Method: Adherent Gallus cells were thawed and seeded at a density of 5000 cells/cm^2 in a T25-flask. One medium was prepared according to standard media hydration protocols. Dry powder media was added to DI water in a clean vessel and allowed to stir until all components were dissolved. The pH and osmolality of the medium were adjusted to 7.4 and 300 mOsm/kg respectively. The medium was then filtered using a 0.22 μm PES filtration unit and stored at 4° C. until use. Prior to use, the medium was allowed to come up to room temperature. Cells were seeded in the inner wells of a 96-well cell culture plate. Wells were either seeded with one of two different FGF-2 growth factors, a recombinant Gallus FGF-2 produced as described in Example 5, or a commercially available recombinant human FGF-2, or without any growth factors. Each growth factor was seeded at two different concentrations, 10 μg/L or 100 μg/L. Test conditions were all seeded in triplicate at a density of 5000 cells/cm^2. Cells were incubated at 39° C. in 5% CO2 in a Biotek BioSpa Live Cell Analysis System (BioSpa) for five days. Cells were imaged every 12 hours using the BioSpa. Images were processed using BioTeck Gen5 Data Analysis software. Data was then exported and analyzed using Microsoft Excel and SAS JMP.

cells [3] = experiment: Screening of cobalt compounds to replace cobalt chloride; format: cell-based; settings: replacement of cobalt chloride
From the text: Cobalt is an essential cofactor nutrient for many enzymatic pathways that contribute to metabolic and cellular function. Cobalt chloride is a commonly used source of cobalt in culture media. Cobalt chloride is strictly prohibited by the FDA for use in food. In order to find a suitable replacement, many cobalt compounds were screened. Eventually, Vitamin B12 in the form of cyanocobalamin, which contains bioavailable cobalt at its chiral center, was found. […] In some embodiments the method comprises removing cobalt chloride. In some embodiments the method comprises replacing cobalt chloride with cyanocobalamin (Vit B12).

[4] = Margin between estimated intake of a 65 kg adult and rat NOAEL; settings: 65 kg adult
Method: A safety assessment was conducted on each component of a given cell culture media under the procedure outlined below. […] Further overview of the categorical framework for ensuring that culture media components are safe and suitable for their intended use in meat production are outlined below according to their category designation. A list of media components used during meat production along with worst-case exposure estimates and relevant authoritative limits or published toxicological/safety data supporting their use is presented in Table 16. • Category 1: These cell culture media components are food ingredients/additives that are GRAS or permitted by federal regulation without limitation on use. Exemplary compounds in this category include innocuous ingredients such as sugars, pH buffers, water soluble vitamins, and common antioxidants such as tocopherols. • Category 2. These cell culture media components are common dietary nutrients and are anticipated to have GRAS status for food use or be permitted by regulation for addition to food. Examples of such compounds include most of the inorganic salts and macronutrients that are present within the cell culture media. […] In some instances, consideration of established safe levels (e.g., ADI, UL) derived from a relevant authoritative body (e.g., U.S. FDA, EFSA, JECFA, FSANZ, U.S. EPA) may be leveraged to support safety. If comparisons of anticipated dietary intakes relative to an authoritative reference intake value is used, consideration of additive intakes from all dietary sources may be considered. […] For Category 3 substances a final consideration in the safety assessment process may involve hazard characterization of the potential for a substance to produce toxic biological effects outside of the endpoints measured in a sub-chronic rat toxicity study. […] Considerations for allergenicity, biological effects in humans (e.g., effects on blood pressure), and synergistic effects with other media components also may be evaluated. […]

[5] = cited from earlier work; for Safe Reference Level for Human Dietary Intake: UL: Tolerable Upper Limit
[6] = Safety assessment framework: risk categorization of media components
Method: A safety assessment was conducted on each component of a given cell culture media under the procedure outlined below. […] Further overview of the categorical framework for ensuring that culture media components are safe and suitable for their intended use in meat production are outlined below according to their category designation. A list of media components used during meat production along with worst-case exposure estimates and relevant authoritative limits or published toxicological/safety data supporting their use is presented in Table 16. • Category 1: These cell culture media components are food ingredients/additives that are GRAS or permitted by federal regulation without limitation on use. Exemplary compounds in this category include innocuous ingredients such as sugars, pH buffers, water soluble vitamins, and common antioxidants such as tocopherols. • Category 2. These cell culture media components are common dietary nutrients and are anticipated to have GRAS status for food use or be permitted by regulation for addition to food. Examples of such compounds include most of the inorganic salts and macronutrients that are present within the cell culture media. […] In some instances, consideration of established safe levels (e.g., ADI, UL) derived from a relevant authoritative body (e.g., U.S. FDA, EFSA, JECFA, FSANZ, U.S. EPA) may be leveraged to support safety. If comparisons of anticipated dietary intakes relative to an authoritative reference intake value is used, consideration of additive intakes from all dietary sources may be considered. In the absence of an authoritative reference intake value, published NOAELs from animal toxicology studies may be used to evaluate safety using standard scientific procedures for food safety evaluation. A margin of exposure (MoE) of 100-fold or greater between the NOAEL and estimated dietary intakes from food exposures is typically considered adequate to support safety. In situations where the MoE is <100-fold, additional measures for further reduction of the media component may be necessary, or further characterization of intraspecies/interspecies differences in metabolism may be necessary. These situations also require careful consideration of the regulatory status on a case-by-case basis (e.g., premarket approval as a food additive or GRAS evaluation required). • Category 3. […] For Category 3 substances a final consideration in the safety assessment process may involve hazard characterization of the potential for a substance to produce toxic biological effects outside of the endpoints measured in a sub-chronic rat toxicity study. […] Considerations for allergenicity, biological effects in humans (e.g., effects on blood pressure), and synergistic effects with other media components also may be evaluated. […]

[7] = Maximum (worst-case) dietary exposure estimate per 100 g serving; settings: assumes complete transfer of media components to the finished product on a wt/wt basis
Method: The average daily intake (ADI) is conventionally determined as a result of a safety factor of 100-fold below the experimentally derived No Observable Adverse Effect Limits (NOAEL) for an appropriate animal species for sub-chronic or acute exposure. […] The ADI is determined in an appropriately sensitive species, usually rodent, and it is reported as mg of substance/kg of animal body weight/24-hour period. Calculating the maximum theoretical concentration of each media compound in the final product is done by assuming 100% incorporation of the compound from the media into the product.
A safety assessment was conducted on each component of a given cell culture media under the procedure outlined below.

ferric ammonium citrate [FAC]
cell viability over time (cells [1]): maintain high viability over time

O.O.O.O.O.O.[Cl-].[Cl-].[Sr+2] [STRONTIUM CHLORIDE HEXAHYDRATE]
ADI [2]: 1.87 mg/kg bw-day

[Cl-].[Rb+] [RUBIDIUM CHLORIDE]
ADI [2]: 0.051 mg/kg bw-day

commercial human FGF-2: commercially available recombinant human FGF-2 [reference compound]
cellular response (Adherent Gallus cells): equivalent activity
cellular response (Adherent Gallus cells; listed as human recombinant FGF-2): equivalent response

cyanocobalamin [VITAMIN B12 (CYANCOCOBALAMIN)]
supply of cobalt to promote cellular function (cells [3]): sufficiently supplied cobalt

O.O.O.O.O.O.O=C([O-])CCC(=O)[O-].[Na+].[Na+] [SODIUM SUCCINATE-2Na 6H20]
Intakes below NOAEL ([4]; NOAEL from 2 year rat study): are >1000 fold below

O=C(O)CCCCC1CCSS1 (racemic) [DL-ALPHA-LIPOIC ACID]
ADI [2]: 5.14 mg/kg bw-day

C=C1CC[C@H](O)C/C1=C/C=C1\CCC[C@]2(C)[C@@H]([C@H](C)/C=C/[C@H](C)C(C)C)CC[C@@H]12 [VITAMIN D2 (ERGOCALCIFEROL), ERGOCALCIFEROL]
Safe Reference Level for Human Dietary Intake: UL [5]: UL = 100 ug/d

O.O.[Na+].[Na+].[O]=[Mo](=[O])([O-])[O-] [SODIUM MOLYBDATE-2H2O]
ADI [2]: 1.41 mg/kg bw-day

Cc1cn([C@H]2C[C@H](O)[C@@H](CO)O2)c(=O)[nH]c1=O [THYMIDINE SYNTHETIC, THYMIDINE]
ADI [2]: 83.1 mg/kg bw-day

O=P([O-])([O-])O.[Na+].[Na+] [SODIUM PHOSPHATE DIBASIC-ANHY]
Risk Assessment Category [6]: 1
Maximum Estimated Exposure per 100 g serving [7]: 4.3 g

NCCO [MONOETHANOLAMINE]
Intakes below NOAEL ([4]; rat NOAEL): kg adult are 128 fold

O=S(=O)([O-])[O-].[Mg+2] [MAGNESIUM SULFATE (ANHY)]
Safe Reference Level for Human Dietary Intake: UL (in words) ([5]; NS = not specified as no evidence of toxicity from excess intake known): No UL for food

Cl.Cl.NCCCCN [PUTRESCINE-2HCl]
ADI [2]: 0.018 mg/kg bw-day

CCCCCCCC/C=C\CCCCCCCC(=O)OCCOCC(OCCO)C1OCC(OCCO)C1OCCO (stereo not shown) [TWEEN 80]
Safe Reference Level for Human Dietary Intake: ADI ([5]; Acceptable Daily Intake): ADI = 10 mg/kg bw/d

CC(=O)Oc1c(C)c(C)c2c(c1C)CCC(C)(CCCC(C)CCCC(C)CCCC(C)C)O2 (racemic) [DL-ALPHA-TOCOPHEROL ACETATE]
Safe Reference Level for Human Dietary Intake: UL [5]: UL = 1000 mg/d

CALCIUM D-PANTOTHENATE
Risk Assessment Category [6]: 1

O=C(O)CCC(=O)O [SUCCINIC ACID]
Intakes below NOAEL ([4]; NOAEL from 2 year rat study): adult are 257-fold

FERRIC CITRATE
Risk Assessment Category [6]: 2

Cc1c(C)c2c(c(C)c1O)CC[C@@](C)(CCC[C@H](C)CCC[C@H](C)CCCC(C)C)O2 [D-ALPHA-TOCOPHEROL]
Safe Reference Level for Human Dietary Intake: UL [5]: UL = 1000 mg/d

N[C@@H](CCC(=O)[O-])C(=O)O.O.[Na+] [L-GLUTAMIC ACID MONOSODIUM H20]
Risk Assessment Category [6]: 2

B1: cis Gallus FGF-2: recombinant Gallus FGF-2 produced in E. coli as described in Example 5 (protein, UniProt P48800 13-158, looked up)
Fibroblast growth factor 2: PALPDDGGGGAFPPGHFKDPKRLYCKNGGFFLRINPDGRVDGVREKSDPHIKLQLQAEERGVVSIKGVSANRFLAMKEDGRLLALKCATEECFFFERLESNNYNTYRSRKYSDWYVALKRTGQYKPGPKTGPGQKAILFLPMSAKS
cellular response (Adherent Gallus cells): equivalent activity
cellular response (Adherent Gallus cells; listed as cis recombinant Gallus FGF-2): equivalent response
